The source of these data is US8779142B2, “Azabicyclo compound and salt thereof” (Taiho Pharmaceutical Co., Ltd., priority 2009, dated 2014).

One experiment has as its system SK-BR-3 cells. Kind of experiment: Measurement of cell growth inhibition (crystal violet staining method). Type of experiment: cell-based. The note with it: Homo sapiens.
In experiment [1] the target is human HSP90 alpha protein (HSP90 N-terminal protein, amino acids 2-236) (Homo sapiens (Human), UniProt P07900). As to the kind of experiment: Measurement of HSP90-binding activity (AlphaScreen competitive assay, biotin-labeled geldanamycin). Conditions: concentration inhibiting binding of biotin-labeled geldanamycin (40 nM) to purified HSP90 to 50% of control; read-out: HSP-binding activity IC50. Background: Alpha assays give light when donor and acceptor beads are brought close together.

Where [2] appears, read: breast cancer SK-BR-3 cells, 72 hr culture with test substance.

A word on the IC50: it is the concentration that inhibits the measured activity by half. As for `Cn1cc(-c2cn(-c3ccnc4c3c(C(F)(F)F)nn4-c3ccc(C(N)=O)cc3-c3ccccc3)cn2)cn1` [Example 172, 6-{4-(4-(1-Methyl-1H-pyrazol-4-yl)-1H-imidazol-1-yl)-3-(trifluoromethyl)-1H-pyrazolo[3,4-b]pyridin-1-yl}biphenyl-3-carboxamide], the half-inhibitory concentration (IC50) in the experiment on SK-BR-3 cells (setting [2]) is 870 nM; in experiment [1], 1070 nM.

On to `CC(C)c1nn(-c2ccc(C(N)=O)c(NC3CCC(O)CC3)c2)c2nccc(-n3cnc(-c4cn[nH]c4)c3)c12` (centres unmarked) [Example 95, 4-{4-(4-(1H-Pyrazol-4-yl)-1H-imidazol-1-yl)-3-isopropyl-1H-pyrazolo[3,4-b]pyridin-1-yl}-2-(4-hydroxycyclohexylamino)benzamide], for which the values for the IC50 (in the experiment on SK-BR-3 cells (setting [2]); in experiment [1]) were 20 nM and 60 nM, respectively.

For the compound `CC(C)c1nn(-c2ccc(C(N)=O)c(NCCc3ccccn3)c2)c2nccc(-c3cnc4ccccc4c3)c12` [Example 28, 4-{3-Isopropyl-4-(quinolin-3-yl)-1H-pyrazolo[3,4-b]pyridin-1-yl}-2-{2-(pyridin-2-yl)ethylamino}benzamide], the concentration for half-maximal inhibition (IC50) stood at 280 nM in the experiment with SK-BR-3 cells (setting [2]) and 400 nM in experiment [1].

Regarding `Cc1cn(-c2ccc(C(N)=O)c(NCCCNC(C)C)c2)c2nccc(-c3cnc4ccccc4c3)c12` [Example 60, 2-[3-(Isopropylamino)propylamino]-4-{3-methyl-4-(quinolin-3-yl)-1H-pyrrolo[2,3-b]pyridin-1-yl}benzamide], the IC50 in the experiment with SK-BR-3 cells (setting [2]) was found to be 1530 nM; in experiment [1] it was 1370 nM.

`Cc1cc(C(N)=O)ccc1-n1nc(C(F)(F)F)c2c(-n3cnc(-c4cccnc4)c3)ccnc21` [Example 175, 3-Methyl-4-{4-(4-(pyridin-3-yl)-1H-imidazol-1-yl)-3-(trifluoromethyl)-1H-pyrazolo[3,4-b]pyridin-1-yl}benzamide]: the values for the IC50 (in the experiment on SK-BR-3 cells (setting [2]); in experiment [1]) were 290 nM and 370 nM, respectively.

As to `C=Cc1cc(C(N)=O)ccc1-n1nc(C(C)C)c2c(-n3cnc(-c4cnn(C)c4)c3)ccnc21` [Example 101, 4-{3-Isopropyl-4-(4-(1-methyl-1H-pyrazol-4-yl)-1H-imidazol-1-yl)-1H-pyrazolo[3,4-b]pyridin-1-yl}-3-vinylbenzamide], the 50% inhibitory concentration (IC50) was determined as 290 nM with SK-BR-3 cells (setting [2]) and 220 nM in experiment [1].

With `CC(C)c1nn(-c2ccc(C(N)=O)cc2Cl)c2nccc(-n3cnc(-c4ccc(C(N)=O)cc4)c3)c12` [Example 152, 4-{4-(4-(4-Carbamoylphenyl)-1H-imidazol-1-yl)-3-isopropyl-1H-pyrazolo[3,4-b]pyridin-1-yl}-3-chlorobenzamide], the results for the half-inhibitory concentration (IC50) (in the experiment with SK-BR-3 cells (setting [2]); in experiment [1]) were 1280 nM and 1010 nM, respectively.

For the compound `CCCNc1cc(C(N)=O)ccc1-n1nc(C(F)(F)F)c2c(-n3cnc(-c4cnn(C)c4)c3)ccnc21` [Example 163, 4-{4-(4-(1-Methyl-1H-pyrazol-4-yl)-1H-imidazol-1-yl)-3-(trifluoromethyl)-1H-pyrazolo[3,4-b]pyridin-1-yl}-3-(propylamino)benzamide], the results for the IC50 (in the experiment with SK-BR-3 cells (setting [2]); in experiment [1]) were 60 nM and 100 nM, respectively.

As for `CCNc1cc(-n2nc(C(C)C)c3c(-n4cnc(-c5cccnc5)c4)ccnc32)ccc1C(N)=O` [Example 139, 2-(Ethylamino)-4-{3-isopropyl-4-(4-(pyridin-3-yl)-1H-imidazol-1-yl)-1H-pyrazolo[3,4-b]pyridin-1-yl}benzamide], the IC50 was 280 nM in the experiment on SK-BR-3 cells (setting [2]) and 570 nM in experiment [1].

Regarding `CCCc1cc(C(N)=O)ccc1-n1nc(C(F)(F)F)c2c(-n3cnc(-c4cnn(C)c4)c3)ccnc21` [Example 156, 4-{4-(4-(1-Methyl-1H-pyrazol-4-yl)-1H-imidazol-1-yl)-3-(trifluoromethyl)-1H-pyrazolo[3,4-b]pyridin-1-yl}-3-propylbenzamide], the half-inhibitory concentration (IC50) with SK-BR-3 cells (setting [2]) was 40 nM; in experiment [1] it was 70 nM.

With `CC(C)c1nn(-c2ccc(C(N)=O)c(NCCN3CCCC3)c2)c2nccc(-n3cnc(-c4cnn(C)c4)c3)c12` [Example 115, 4-{3-Isopropyl-4-(4-(1-methyl-1H-pyrazol-4-yl)-1H-imidazol-1-yl)-1H-pyrazolo[3,4-b]pyridin-1-yl}-2-{2-(pyrrolidin-1-yl)ethylamino}benzamide], the IC50 with SK-BR-3 cells (setting [2]) is 240 nM; in experiment [1], 160 nM.

As for `CN(C)c1cc(C(N)=O)ccc1-n1nc(C(F)(F)F)c2c(-n3cnc(-c4cnn(C)c4)c3)ccnc21` [Example 159, 3-(Dimethylamino)-4-{4-(4-(1-methyl-1H-pyrazol-4-yl)-1H-imidazol-1-yl)-3-(trifluoromethyl)-1H-pyrazolo[3,4-b]pyridin-1-yl}benzamide], the results for the IC50 (with SK-BR-3 cells (setting [2]); in experiment [1]) were 290 nM and 210 nM, respectively.

For `Cn1cc(-c2cn(-c3ccnc4c3c(C(F)(F)F)nn4-c3ccc(C(N)=O)cc3Cl)cn2)cn1` [Example 153, 3-Chloro-4-{4-(4-(1-methyl-1H-pyrazol-4-yl)-1H-imidazol-1-yl)-3-(trifluoromethyl)-1H-pyrazolo[3,4-b]pyridin-1-yl}benzamide], the IC50 in the experiment on SK-BR-3 cells (setting [2]) was found to be 240 nM; in experiment [1], 130 nM.

`CC(C)Nc1cc(-n2nc(C(C)C)c3c(-n4cnc(-c5cccnc5)c4)ccnc32)ccc1C(N)=O` [Example 140, 4-{3-Isopropyl-4-(4-(pyridin-3-yl)-1H-imidazol-1-yl)-1H-pyrazolo[3,4-b]pyridin-1-yl}-2-(isopropylamino)benzamide]: the values for the 50% inhibitory concentration (IC50) (with SK-BR-3 cells (setting [2]); in experiment [1]) were 190 nM and 760 nM, respectively.

Take `CC(C)c1nn(-c2ccc(C(N)=O)c(NCCN3CCOCC3)c2)c2nccc(-c3cnc4ccccc4c3)c12` [Example 31, 4-{3-Isopropyl-4-(quinolin-3-yl)-1H-pyrazolo[3,4-b]pyridin-1-yl}-2-(2-morpholinoethylamino)benzamide]: the half-inhibitory concentration (IC50) with SK-BR-3 cells (setting [2]) came out at 100 nM; in experiment [1], 330 nM.

For the compound `NC(=O)c1ccc(-n2cc(C(F)(F)F)c3c(-c4cnc5ccccc5c4)ccnc32)cc1N[C@H]1CC[C@H](O)CC1` [Example 43, 2-(Trans-4-hydroxycyclohexylamino)-4-{4-(quinolin-3-yl)-3-(trifluoromethyl)-1H-pyrrolo[2,3-b]pyridin-1-yl}benzamide], the results for the IC50 (with SK-BR-3 cells (setting [2]); in experiment [1]) were 10 nM and 100 nM, respectively.

Consider `CCc1cc(C(N)=O)ccc1-n1nc(C(F)(F)F)c2c(-n3cnc(-c4cnn(C)c4)c3)ccnc21` [Example 155, 3-Ethyl-4-{4-(4-(1-methyl-1H-pyrazol-4-yl)-1H-imidazol-1-yl)-3-(trifluoromethyl)-1H-pyrazolo[3,4-b]pyridin-1-yl}benzamide], for which the IC50 with SK-BR-3 cells (setting [2]) is 40 nM; in experiment [1], 110 nM.

In the case of `CCc1cn(-c2ccc(C(N)=O)c(NC3CCCCC3N)c2)c2nccc(-c3cnc4ccccc4c3)c12` (centres unmarked) [Example 70, 2-(2-Aminocyclohexylamino)-4-{3-ethyl-4-(quinolin-3-yl)-1H-pyrrolo[2,3-b]pyridin-1-yl}benzamide], the results for the IC50 (with SK-BR-3 cells (setting [2]); in experiment [1]) were 80 nM and 230 nM, respectively.

As to `CCc1cn(-c2ccc(C(N)=O)c(N[C@H]3CC[C@H](N)CC3)c2)c2nccc(-c3cnc4ccccc4c3)c12` [Example 72, 2-(Trans-4-aminocyclohexylamino)-4-{3-ethyl-4-(quinolin-3-yl)-1H-pyrrolo[2,3-b]pyridin-1-yl}benzamide], the half-maximal inhibitory concentration (IC50) in the experiment on SK-BR-3 cells (setting [2]) stood at 110 nM; in experiment [1] it was 260 nM.

`NC(=O)c1ccc(-n2nc(C(F)(F)F)c3c(-n4cnc(-c5cccnc5)c4)ccnc32)c(NC2CCCC2)c1` [Example 183, 3-(Cyclopentylamino)-4-{4-(4-(pyridin-3-yl)-1H-imidazol-1-yl)-3-(trifluoromethyl)-1H-pyrazolo[3,4-b]pyridin-1-yl}benzamide]: the IC50 in the experiment with SK-BR-3 cells (setting [2]) was 150 nM; in experiment [1], 330 nM.

As to `COc1ccc2ccn(-c3ccc(C(N)=O)c(NC4CCC(O)CC4)c3)c2c1` (centres unmarked) [Comparative Example 1, reference compound], the IC50 in the experiment on SK-BR-3 cells (setting [2]) is over 10000 nM; in experiment [1], over 100000 nM.

`COc1cc2ccn(-c3ccc(C#N)c(Nc4ccccc4)c3)c2cc1OC` [Comparative Example 3, reference compound] came in with a concentration for half-maximal inhibition (IC50) in the experiment on SK-BR-3 cells (setting [2]) of over 10000 nM.

With `Cc1cn(-c2ccc(C(N)=O)c(S[C@H]3CC[C@H](O)CC3)c2)c2nccc(-c3cnc4ccccc4c3)c12` [Example 67, 2-(Trans-4-hydroxycyclohexylthio)-4-{3-methyl-4-(quinolin-3-yl)-1H-pyrrolo[2,3-b]pyridin-1-yl}benzamide], the IC50 in the experiment with SK-BR-3 cells (setting [2]) worked out at 510 nM.

For `COc1ccc2c(c1)cc(C)n2-c1ccc(C(N)=O)c(Nc2ccccc2)c1` [Comparative Example 5, reference compound], the concentration for half-maximal inhibition (IC50) in the experiment with SK-BR-3 cells (SK-BR-3, 72 h) is over 10000 nM.

In the case of `COc1cc2ccn(-c3ccc(C(N)=O)c(Nc4ccccc4)c3)c2cc1OC` [Comparative Example 4, reference compound], the IC50 in the experiment on SK-BR-3 cells (SK-BR-3, 72 h) is over 10000 nM.

`CC(C)c1nn(-c2ccc(C(N)=O)c(N[C@H]3CC[C@H](O)CC3)c2)c2nccc(-c3cnc4ccccc4c3)c12` [Example 6, 2-(Trans-4-hydroxycyclohexylamino)-4-{3-isopropyl-4-(quinolin-3-yl)-1H-pyrazolo[3,4-b]pyridin-1-yl}benzamide]: inhibition with SK-BR-3 cells (setting [2]) was half-maximal at 30 nM (IC50).

`COc1cc(C(N)=O)ccc1-n1nc(C(C)C)c2c(-n3cnc(-c4cnn(C)c4)c3)ccnc21` [Example 128, 4-{3-Isopropyl-4-(4-(1-methyl-1H-pyrazol-4-yl)-1H-imidazol-1-yl)-1H-pyrazolo[3,4-b]pyridin-1-yl}-3-methoxybenzamide] registered a half-maximal inhibitory concentration (IC50) with SK-BR-3 cells (setting [2]) of 150 nM.

In the case of `COc1ccc(-c2ccnc3c2c(C(C)C)nn3-c2ccc(C(N)=O)c(N[C@H]3CC[C@H](O)CC3)c2)cn1` [Example 18, 2-(Trans-4-hydroxycyclohexylamino)-4-{3-isopropyl-4-(6-methoxypyridin-3-yl)-1H-pyrazolo[3,4-b]pyridin-1-yl}benzamide], in the experiment with SK-BR-3 cells (setting [2]), it took 590 nM to reach half-maximal inhibition (IC50).

In the experiment on SK-BR-3 cells (setting [2]), `Cc1cn(-c2ccc(C(N)=O)c(N[C@H]3CC[C@H](N)CC3)c2)c2nccc(-c3cnc4ccccc4c3)c12` [Example 61, 2-(Trans-4-aminocyclohexylamino)-4-{3-methyl-4-(quinolin-3-yl)-1H-pyrrolo[2,3-b]pyridin-1-yl}benzamide] came in with an IC50 of 360 nM.
